Test results as given in ChEMBL document CHEMBL1131672, “6-(1-Hydroxyalkyl))penam sulfone derivatives as inhibitors of class A and class C beta-lactamases II” (Bioorg Med Chem Lett, 1999).
In brackets after ≈: the same amount, converted by molar mass.

Columns and labels:
Beta-lactamase TEM = Beta-lactamase TEM (Escherichia coli, UniProt P62593); assay: Inhibitory activity against TEM-1 (class A) beta-lactamase
Escherichia coli [1] = assay: In vivo inhibitory activity against Escherichia coli in mice; format: functional
Escherichia coli [2] = assay: In vitro inhibitory activity against Escherichia coli; format: functional
Serratia marcescens [3] = assay: In vitro inhibitory activity against Serratia marcescens; format: functional
Serratia marcescens [4] = assay: In vivo inhibitory activity against Serratia marcescens in mice; format: functional
Beta-lactamase = Beta-lactamase (Escherichia coli K-12, UniProt P00811); assay: Inhibitory activity against AmpC (class C) beta-lactamase
Sequence of Beta-lactamase (P00811 whole entry): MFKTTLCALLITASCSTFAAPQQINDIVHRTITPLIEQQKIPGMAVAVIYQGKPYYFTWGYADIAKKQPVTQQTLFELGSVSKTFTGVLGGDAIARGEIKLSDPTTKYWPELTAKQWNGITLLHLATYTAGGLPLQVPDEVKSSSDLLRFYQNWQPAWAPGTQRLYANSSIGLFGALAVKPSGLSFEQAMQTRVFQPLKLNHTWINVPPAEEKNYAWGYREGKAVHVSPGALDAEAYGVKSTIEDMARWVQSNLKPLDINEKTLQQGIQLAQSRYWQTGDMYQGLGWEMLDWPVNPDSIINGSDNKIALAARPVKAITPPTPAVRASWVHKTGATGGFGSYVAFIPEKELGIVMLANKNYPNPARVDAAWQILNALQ

Sequence of Beta-lactamase TEM (P62593 whole entry): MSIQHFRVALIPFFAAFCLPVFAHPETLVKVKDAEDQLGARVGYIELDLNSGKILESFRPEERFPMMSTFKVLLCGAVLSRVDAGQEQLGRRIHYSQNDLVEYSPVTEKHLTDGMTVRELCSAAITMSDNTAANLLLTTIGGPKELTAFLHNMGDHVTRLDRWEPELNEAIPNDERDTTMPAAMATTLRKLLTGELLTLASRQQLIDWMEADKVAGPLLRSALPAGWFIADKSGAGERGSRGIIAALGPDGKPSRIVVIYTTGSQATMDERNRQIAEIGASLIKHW

| Structure (SMILES) | IC50 (Beta-lactamase TEM) [nM] | ED50 (Escherichia coli [1]) [mg/kg] | MIC (Escherichia coli [2]) [µg/mL] | MIC (Serratia marcescens [3]) [µg/mL] | ED50 (Serratia marcescens [4]) [mg/kg] | IC50 (Beta-lactamase) [nM] |
| --- | --- | --- | --- | --- | --- | --- |
| C[C@]1(Cn2ccnn2)[C@H](C(=O)[O-])N2C(=O)[C@@H](CO)[C@H]2S1(=O)=O.[Na+] | 6 | 3.6 | 2 | 16 | 125 |  |
| CO/N=C/C1(C)[C@H](C(=O)O)N2C(=O)[C@@H](CO)[C@H]2S1(=O)=O (single isomer, unassigned) | 64 |  | 8 (≈ 26.1 µM) | 16 (≈ 52.2 µM) |  | 280 |
| CCN1CCN(C(=O)N[C@@H](C(=O)N[C@@H]2C(=O)N3[C@@H]2SC(C)(C)[C@@H]3C(=O)O)c2ccccc2)C(=O)C1=O [PIPERACILLIN] |  | 256 | > 64 | 32 (≈ 61.8 µM) | 128 |  |
| CC1(C=CC#N)[C@H](C(=O)O)N2C(=O)C[C@H]2S1(=O)=O (single isomer, unassigned) [Ro-481220] | 42 | 15 | 4 (≈ 14.8 µM) | 4 (≈ 14.8 µM) | 82 | 1130 |
| C[C@]1(/C=C\C#N)[C@H](C(=O)[O-])N2C(=O)[C@@H](CO)[C@H]2S1(=O)=O.[Na+] |  | 4 | 4 | 8 | 16 | 270 |
| C[C@]1(Cn2ccnn2)[C@H](C(=O)[O-])N2C(=O)C[C@H]2S1(=O)=O.[Na+] [TAZOBACTAM SODIUM] |  | 7.7 | 2 | 32 | 144 |  |
| C[C@]1(/C=C/C#N)[C@H](C(=O)[O-])N2C(=O)[C@@H](CO)[C@H]2S1(=O)=O.[Na+] |  |  | 16 | 4 |  | 280 |
